Experiment: recombinant barcode read abundance after kanamycin selection (control-corrected) (log10(CPM+1)); higher = more efficient recombination; sequences stand for … in AGTGCAGAGAAAATCGGCCAGTTTTCTCTGCCTGCAGTCCGCATGCCGT…AGATTTATGCAGCGGACTGCCTTTCTCCCAAAGTGATAAACCGGACAGTATCATGGACCGGTTTTCCCGGTAATCCGTATTTGCAAGGTTGGTTTCACT; site = the 11-nt target
Procedure: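 Pooled E. coli target-specificity screen for the IS621 bridge recombinase. Each library plasmid pairs an 11-nt target (CT core) with a bridge RNA whose target-binding loop (9-nt LTG + 4-nt RTG) is reprogrammed; the rest of the 177-nt WT IS621 bridge RNA scaffold is fixed. The plasmid is co-electroporated with a WT donor plasmid; recombinase is induced with 0.1 mM IPTG and recombinants are selected on kanamycin. Recombinant barcodes are sequenced, converted to CPM, averaged over two biological replicates and corrected by the unselected control CPM. Molecule = full bridge RNA written as DNA: LTG = specificity nt 1-9, RTG = reverse complement of specificity nt 8-11, in the WT scaffold.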
In the case of “ACCAAGCCTTGGGTTCTAACCTGTTGCGG (site ACCAAGCCTCC)”, the “recombinant barcode read abundance (log10)” value is reported as 1.36. In the case of “ACCAAGCCTTGGGTTCTAACCTGTTGCGG (site GCCCAGCCTCC)”, the “recombinant barcode read abundance (log10)” value is reported as 0.295. For “ACCAATCCTTGGGTTCTAACCTGTTGCCT (site ACCAATACTAG)”, the “recombinant barcode read abundance (log10)” value was 0.087. For “ACCAATCCTTGGGTTCTAACCTGTTGCCT (site ACCAATCCTAG)”, the “recombinant barcode read abundance (log10)” value was 0.21. In the case of “ACCAATCCTTGGGTTCTAACCTGTTGCCT (site ACCAATGCTAG)”, the “recombinant barcode read abundance (log10)” value is reported as 0.177. For “ACCAATCCTTGGGTTCTAACCTGTTGCCT (site ACCAATTCTAG)”, the “recombinant barcode read abundance (log10)” value was 0.0626. With “ACCAGGTCTTGGGTTCTAACCTGTTGCCT (site AACAGGTCTAG)” the “recombinant barcode read abundance (log10)” value was 0.15. With “ACCAGGTCTTGGGTTCTAACCTGTTGCCT (site ACCAGGTCTAG)” the “recombinant barcode read abundance (log10)” value was 1.59. In the case of “ACCAGGTCTTGGGTTCTAACCTGTTGCCT (site AGCAGGTCTAG)”, the “recombinant barcode read abundance (log10)” value is reported as 0.208. In the case of “ACCAGGTCTTGGGTTCTAACCTGTTGCCT (site ATCAGGTCTAG)”, the “recombinant barcode read abundance (log10)” value is reported as 0.09. In the case of “ACCAGTCCTTGGGTTCTAACCTGTTGCTG (site ACCAGTCCTCA)”, the “recombinant barcode read abundance (log10)” value is reported as 1.97. For “ACCAGTCCTTGGGTTCTAACCTGTTGCTG (site ACCAGTCCTTA)”, the “recombinant barcode read abundance (log10)” value was 0.0735. In the case of “ACCCAAACTTGGGTTCTAACCTGTTGCCT (site ACCCAAACTAG)”, the “recombinant barcode read abundance (log10)” value is reported as 1.08. With “ACCCAAACTTGGGTTCTAACCTGTTGCCT (site ACCCAACCTAG)” the “recombinant barcode read abundance (log10)” value was 0.0677. For “ACCCAAACTTGGGTTCTAACCTGTTGCCT (site ACCCAAGCTAG)”, the “recombinant barcode read abundance (log10)” value was 0.161. With “ACCCAAACTTGGGTTCTAACCTGTTGCCT (site ACCCAATCTAG)” the “recombinant barcode read abundance (log10)” value was 0.0553. With “ACCCGCTCTTGGGTTCTAACCTGTTGCCT (site ACCCGCTCTAG)” the “recombinant barcode read abundance (log10)” value was 0.542. With “ACCCGCTCTTGGGTTCTAACCTGTTGCCT (site TAGGATCCTTC)” the “recombinant barcode read abundance (log10)” value was 0.538. In the case of “ACCCTAACTTGGGTTCTAACCTGTTGCGG (site ACCCTAACTCC)”, the “recombinant barcode read abundance (log10)” value is reported as 1.16. For “ACCCTAACTTGGGTTCTAACCTGTTGCGG (site ACCTTAGCTCC)”, the “recombinant barcode read abundance (log10)” value was 0. For “ACCCTATCTTGGGTTCTAACCTGTTGCCT (site ACCCTAACTCG)”, the “recombinant barcode read abundance (log10)” value was 0.0342. With “ACCCTATCTTGGGTTCTAACCTGTTGCCT (site ACCCTATCTAG)” the “recombinant barcode read abundance (log10)” value was 1.39. In the case of “ACCCTCCCTTGGGTTCTAACCTGTTGCTA (site ACCCTCCCTTA)”, the “recombinant barcode read abundance (log10)” value is reported as 2.47. With “ACCCTCCCTTGGGTTCTAACCTGTTGCTA (site ACTCTACCTTA)” the “recombinant barcode read abundance (log10)” value was 0.136. For “ACCGGTCCTTGGGTTCTAACCTGTTGCGT (site ACCGGTCCTAC)”, the “recombinant barcode read abundance (log10)” value was 2.14. For “ACCGGTCCTTGGGTTCTAACCTGTTGCGT (site ATCGTTCCTAC)”, the “recombinant barcode read abundance (log10)” value was 0.0193. In the case of “ACCGTACCTTGGGTTCTAACCTGTTGCCT (site ACCGTACCTAG)”, the “recombinant barcode read abundance (log10)” value is reported as 0.304. For “ACCGTACCTTGGGTTCTAACCTGTTGCCT (site ACCGTAGCTAG)”, the “recombinant barcode read abundance (log10)” value was 0.0594. In the case of “ACCGTTCCTTGGGTTCTAACCTGTTGCCT (site ACCGTTCCTAG)”, the “recombinant barcode read abundance (log10)” value is reported as 0.78. With “ACCGTTCCTTGGGTTCTAACCTGTTGCCT (site CTTTAAGCTTA)” the “recombinant barcode read abundance (log10)” value was 0.0328. With “ACCTAACCTTGGGTTCTAACCTGTTGCAT (site ACCTAACCTAT)” the “recombinant barcode read abundance (log10)” value was 1.67. With “ACCTAACCTTGGGTTCTAACCTGTTGCAT (site ATCTATCCTAT)” the “recombinant barcode read abundance (log10)” value was 0.214. With “ACCTACCCTTGGGTTCTAACCTGTTGCGG (site ACCTACCCTCC)” the “recombinant barcode read abundance (log10)” value was 2.33. With “ACCTACCCTTGGGTTCTAACCTGTTGCGG (site CGAACATCTAA)” the “recombinant barcode read abundance (log10)” value was 0.169. With “ACCTACCCTTGGGTTCTAACCTGTTGCGT (site ACATATCCTAC)” the “recombinant barcode read abundance (log10)” value was 0.0563. In the case of “ACCTACCCTTGGGTTCTAACCTGTTGCGT (site ACCTACCCTAC)”, the “recombinant barcode read abundance (log10)” value is reported as 1.54. For “ACCTACTCTTGGGTTCTAACCTGTTGCCT (site ACCTACGCTAG)”, the “recombinant barcode read abundance (log10)” value was 0.0426. With “ACCTACTCTTGGGTTCTAACCTGTTGCCT (site ACCTACTCTAG)” the “recombinant barcode read abundance (log10)” value was 1.36. For “ACCTGAACTTGGGTTCTAACCTGTTGCCT (site ACATGAACTAG)”, the “recombinant barcode read abundance (log10)” value was 0.056. With “ACCTGAACTTGGGTTCTAACCTGTTGCCT (site ACCTGAACTAG)” the “recombinant barcode read abundance (log10)” value was 0.75. In the case of “ACCTGAACTTGGGTTCTAACCTGTTGCCT (site ACGTGAACTAG)”, the “recombinant barcode read abundance (log10)” value is reported as 0.0712. With “ACCTGAACTTGGGTTCTAACCTGTTGCCT (site ACTTGAACTAG)” the “recombinant barcode read abundance (log10)” value was 0.0237. For “ACCTGTGCTTGGGTTCTAACCTGTTGCCT (site ACCTGTGCTAG)”, the “recombinant barcode read abundance (log10)” value was 0.874. In the case of “ACCTGTGCTTGGGTTCTAACCTGTTGCCT (site ATCTGTTCTAG)”, the “recombinant barcode read abundance (log10)” value is reported as 0.151. For “ACCTTGTCTTGGGTTCTAACCTGTTGCCT (site ACATTGTCTAG)”, the “recombinant barcode read abundance (log10)” value was 0.217. With “ACCTTGTCTTGGGTTCTAACCTGTTGCCT (site ACCTTGTCTAG)” the “recombinant barcode read abundance (log10)” value was 0.93. For “ACCTTGTCTTGGGTTCTAACCTGTTGCCT (site ACGTTGTCTAG)”, the “recombinant barcode read abundance (log10)” value was 0.0273. For “ACCTTGTCTTGGGTTCTAACCTGTTGCCT (site ACTTTGTCTAG)”, the “recombinant barcode read abundance (log10)” value was 0.0709. For “ACGAACCCTTGGGTTCTAACCTGTTGCCT (site ACGAACCCTAG)”, the “recombinant barcode read abundance (log10)” value was 1.42. In the case of “ACGAACCCTTGGGTTCTAACCTGTTGCCT (site ACGGACCCTAT)”, the “recombinant barcode read abundance (log10)” value is reported as 0.247. In the case of “ACGAAGACTTGGGTTCTAACCTGTTGCCG (site ACGAAGACTCG)”, the “recombinant barcode read abundance (log10)” value is reported as 1.08. In the case of “ACGAAGACTTGGGTTCTAACCTGTTGCCG (site ACGAGGACTCG)”, the “recombinant barcode read abundance (log10)” value is reported as 0.0668. With “ACGACGTCTTGGGTTCTAACCTGTTGCTT (site ACGACGTCTAA)” the “recombinant barcode read abundance (log10)” value was 0.292. In the case of “ACGACGTCTTGGGTTCTAACCTGTTGCTT (site TCGACGCCTAA)”, the “recombinant barcode read abundance (log10)” value is reported as 0.08. For “ACGACTACTTGGGTTCTAACCTGTTGCCG (site ACGACTACTCG)”, the “recombinant barcode read abundance (log10)” value was 0.618. In the case of “ACGACTACTTGGGTTCTAACCTGTTGCCG (site TATTGGCCTAC)”, the “recombinant barcode read abundance (log10)” value is reported as 0.123. For “ACGATAACTTGGGTTCTAACCTGTTGCCA (site ACGATAACTTG)”, the “recombinant barcode read abundance (log10)” value was 0.215. In the case of “ACGATAACTTGGGTTCTAACCTGTTGCCA (site CTAGATTCTAT)”, the “recombinant barcode read abundance (log10)” value is reported as 0.363. With “ACGATACCTTGGGTTCTAACCTGTTGCCT (site ACGATACCTAG)” the “recombinant barcode read abundance (log10)” value was 0.967. For “ACGATACCTTGGGTTCTAACCTGTTGCCT (site ACGTTACCTAG)”, the “recombinant barcode read abundance (log10)” value was 0.0943. In the case of “ACGATATCTTGGGTTCTAACCTGTTGCCT (site AAGATATCTAG)”, the “recombinant barcode read abundance (log10)” value is reported as 0.181. In the case of “ACGATATCTTGGGTTCTAACCTGTTGCCT (site ACGATATCTAG)”, the “recombinant barcode read abundance (log10)” value is reported as 1.37. In the case of “ACGATATCTTGGGTTCTAACCTGTTGCCT (site AGGATATCTAG)”, the “recombinant barcode read abundance (log10)” value is reported as 0.549. With “ACGATATCTTGGGTTCTAACCTGTTGCCT (site ATGATATCTAG)” the “recombinant barcode read abundance (log10)” value was 0.0859. In the case of “ACGATCGCTTGGGTTCTAACCTGTTGCCT (site ACGAACGCTAG)”, the “recombinant barcode read abundance (log10)” value is reported as 0.08. For “ACGATCGCTTGGGTTCTAACCTGTTGCCT (site ACGACCGCTAG)”, the “recombinant barcode read abundance (log10)” value was 0.197. In the case of “ACGATCGCTTGGGTTCTAACCTGTTGCCT (site ACGAGCGCTAG)”, the “recombinant barcode read abundance (log10)” value is reported as 0.12. With “ACGATCGCTTGGGTTCTAACCTGTTGCCT (site ACGATCGCTAG)” the “recombinant barcode read abundance (log10)” value was 1.25. With “ACGATTCCTTGGGTTCTAACCTGTTGCCT (site AAGATTCCTAG)” the “recombinant barcode read abundance (log10)” value was 0.132. In the case of “ACGATTCCTTGGGTTCTAACCTGTTGCCT (site ACGATTCCTAG)”, the “recombinant barcode read abundance (log10)” value is reported as 0.355. In the case of “ACGATTCCTTGGGTTCTAACCTGTTGCCT (site AGGATTCCTAG)”, the “recombinant barcode read abundance (log10)” value is reported as 0.101. In the case of “ACGATTCCTTGGGTTCTAACCTGTTGCCT (site ATGATTCCTAG)”, the “recombinant barcode read abundance (log10)” value is reported as 0.0978. With “ACGCACACTTGGGTTCTAACCTGTTGCCT (site ACGCACACTAG)” the “recombinant barcode read abundance (log10)” value was 0.214. With “ACGCACACTTGGGTTCTAACCTGTTGCCT (site CCGCACACTAG)” the “recombinant barcode read abundance (log10)” value was 0.182. In the case of “ACGCACACTTGGGTTCTAACCTGTTGCCT (site GCGCACACTAG)”, the “recombinant barcode read abundance (log10)” value is reported as 0.236. For “ACGCACACTTGGGTTCTAACCTGTTGCCT (site TCGCACACTAG)”, the “recombinant barcode read abundance (log10)” value was 0.233. With “ACGCACCCTTGGGTTCTAACCTGTTGCCA (site ACGAGCCCTTG)” the “recombinant barcode read abundance (log10)” value was 0.123. For “ACGCACCCTTGGGTTCTAACCTGTTGCCA (site ACGCACCCTTG)”, the “recombinant barcode read abundance (log10)” value was 0.379. In the case of “ACGCACGCTTGGGTTCTAACCTGTTGCGG (site ACACACCCTCC)”, the “recombinant barcode read abundance (log10)” value is reported as 0.0809. In the case of “ACGCACGCTTGGGTTCTAACCTGTTGCGG (site ACGCACGCTCC)”, the “recombinant barcode read abundance (log10)” value is reported as 0.979. In the case of “ACGCCGACTTGGGTTCTAACCTGTTGCCT (site ACGCCGACTAG)”, the “recombinant barcode read abundance (log10)” value is reported as 0.432. With “ACGCCGACTTGGGTTCTAACCTGTTGCCT (site ACGCGGACTAG)” the “recombinant barcode read abundance (log10)” value was 0.285.

— the supplement of paper PMC11208160
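Further: IS621 recombinase and bridge RNA in Escherichia coli cells.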
